The values below come from US20240279215A1 (Cytokinetics, Incorporated, priority 2022, published 2024).

pEC50: −log10 of the molar value.

This test concerns the target human NAMPT (Homo sapiens (Human), UniProt P43490). Description: NMN fluorescence biochemical assay (human recombinant NAMPT enzyme assay). The essentials:
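NMN formed was detected by fluorescence (Ex/Em 355/460 nm) after acetophenone, KOH and formic acid derivatization. The cell-free reaction ran 60 min at ambient temperature with 6 nM human NAMPT, 150 μM nicotinamide, 20 μM PRPP, 2.5 mM ATP, pH 7.2 HEPES, and compound dose responses.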

human NAMPT, sequence (P43490 whole entry): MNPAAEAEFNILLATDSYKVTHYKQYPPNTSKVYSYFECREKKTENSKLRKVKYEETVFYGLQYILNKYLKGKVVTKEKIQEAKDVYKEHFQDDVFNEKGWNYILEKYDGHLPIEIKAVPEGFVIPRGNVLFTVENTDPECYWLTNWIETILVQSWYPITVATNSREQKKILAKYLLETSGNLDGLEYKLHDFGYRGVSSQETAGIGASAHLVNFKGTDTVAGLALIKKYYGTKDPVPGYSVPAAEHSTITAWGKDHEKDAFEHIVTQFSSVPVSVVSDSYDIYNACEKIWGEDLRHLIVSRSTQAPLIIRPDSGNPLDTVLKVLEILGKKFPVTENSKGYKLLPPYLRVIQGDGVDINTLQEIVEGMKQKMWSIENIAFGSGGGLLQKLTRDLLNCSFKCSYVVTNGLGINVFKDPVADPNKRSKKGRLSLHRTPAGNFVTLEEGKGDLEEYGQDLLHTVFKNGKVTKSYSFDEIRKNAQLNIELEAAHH

For the compound `O=C(Cc1cnco1)NCc1ccc(NC(=O)OCc2ccc(Cl)cc2)cc1` [Compound 311, (4-chlorophenyl)methyl N-(4-{[2-(1,3-oxazol-5-yl)acetamido]methyl}phenyl)carbamate], the “AC1.4 Human” value is 5.40 µM and the negative-log EC50 (pEC50) is 4.57.

On to `O=C1CN(C(=O)C(F)(F)c2ccc(NC(=O)OCc3ccc(Cl)cc3)cc2)CCN1` [Compound 312, (4-chlorophenyl)methyl N-{4-[1,1-difluoro-2-oxo-2-(3-oxopiperazin-1-yl)ethyl]phenyl}carbamate], for which the “AC1.4 Human” value stood at 5.55 µM and the negative logarithm of the EC50 (pEC50) was 4.41.

`O=C(Nc1ccc(C2CCN(C3COC3)CC2)cc1)OCc1cnco1` [Compound 313, 1,3-oxazol-5-ylmethyl N-{4-[1-(oxetan-3-yl)piperidin-4-yl]phenyl}carbamate]: the “AC1.4 Human” value was 5.55 µM and the negative-log EC50 (pEC50) was 4.59.

`Cn1nccc1Cc1ccc(NC(=O)OCc2ccc(Cl)cc2)cc1` [Compound 314, 4-chlorobenzyl (4-((1-methyl-1H-pyrazol-5-yl)methyl)phenyl)carbamate]: the “AC1.4 Human” value turned out to be 5.75 µM and the pEC50 was 4.42.

On to `Cn1cc(CC(=O)NCc2ccc(NC(=O)OCc3ccc(Cl)cc3)cc2)cn1` [Compound 315, (4-chlorophenyl)methyl N-(4-{[2-(1-methylpyrazol-4-yl)acetamido]methyl}phenyl)carbamate], for which the “AC1.4 Human” value was 5.91 µM and the negative-log EC50 (pEC50) is 5.14.

`O=C(Nc1ccc(CC2CCN(C3COC3)CC2)cc1)OCc1ccncc1` [Compound 316]: the “AC1.4 Human” value is 6.04 µM and the pEC50 was 4.54.

Take `O=C(Nc1ccc(CC(=O)N2CC[C@@H](O)C2)cc1)OCc1ccc(Cl)cc1` [Compound 317, (4-chlorophenyl)methyl N-(4-{2-[(3R)-3-hydroxypyrrolidin-1-yl]-2-oxoethyl}phenyl)carbamate]: the “AC1.4 Human” value turned out to be 6.19 µM and the pEC50 was 4.49.

For `COc1ccc(COC(=O)Nc2ccc(CN3CCN(C4COC4)CC3)cc2)cc1` [Compound 318, (4-methoxyphenyl)methyl N-(4-{[4-(oxetan-3-yl)piperazin-1-yl]methyl}phenyl)carbamate], the “AC1.4 Human” value was found to be 6.26 µM and the negative logarithm of the EC50 (pEC50) was 4.25.

In the case of `O=C(Nc1ccc(CC(=O)N2CC[C@H](O)C2)cc1)OCc1ccc(Cl)cc1` [Compound 319, (4-chlorophenyl)methyl N-(4-{2-[(3S)-3-hydroxypyrrolidin-1-yl]-2-oxoethyl}phenyl)carbamate], the “AC1.4 Human” value worked out at 6.50 µM and the pEC50 was 4.39.

On to `O=C(Nc1ccc(CC2CCNCC2)cc1)OCc1cnco1` [Compound 320, oxazol-5-ylmethyl (4-(piperidin-4-ylmethyl)phenyl)carbamate], for which the “AC1.4 Human” value was determined as 6.60 µM and the pEC50 is 4.47.

On to `Cc1ocnc1C(=O)NCc1ccc(NC(=O)OCc2ccc(Cl)cc2)cc1` [Compound 321, (4-chlorophenyl)methyl N-(4-{[(5-methyl-1,3-oxazol-4-yl)formamido]methyl}phenyl)carbamate], for which the “AC1.4 Human” value was 6.86 µM and the negative-log EC50 (pEC50) was 4.25.

For `Cc1nnc(Cc2ccc(NC(=O)OCc3ccc(Cl)cc3)cc2)o1` [Compound 322, (4-chlorophenyl)methyl N-{4-[(5-methyl-1,3,4-oxadiazol-2-yl)methyl]phenyl}carbamate], the “AC1.4 Human” value was 7.23 µM and the negative-log EC50 (pEC50) is 4.41.

Consider `Cc1ccc(CNC(=O)Cc2ccc(NC(=O)OCc3ccc(Cl)cc3)cc2)cn1` [Compound 323, (4-chlorophenyl)methyl N-[4-({[(6-methylpyridin-3-yl)methyl]carbamoyl}methyl)phenyl]carbamate], for which the “AC1.4 Human” value was found to be 7.41 µM and the pEC50 is 4.88.

Regarding `COc1ccc(COC(=O)Nc2ccc(CN3CC(S(C)(=O)=O)C3)cc2)cc1` [Compound 324, (4-methoxyphenyl)methyl N-{4-[(3-methanesulfonylazetidin-1-yl)methyl]phenyl}carbamate], the “AC1.4 Human” value stood at 7.47 µM and the negative-log EC50 (pEC50) is 4.29.

In the case of `COc1ccc(COC(=O)Nc2ccc(CN3CCN(C)C(=O)C3)cc2)cc1` [Compound 325, (4-methoxyphenyl)methyl N-{4-[(4-methyl-3-oxopiperazin-1-yl)methyl]phenyl}carbamate], the “AC1.4 Human” value was determined as 7.87 µM and the pEC50 was 4.29.

As to `O=C(Nc1ccc(Cc2ccncc2)cc1)OCc1ccnnc1` [Compound 326, pyridazin-4-ylmethyl (4-(pyridin-4-ylmethyl)phenyl)carbamate], the “AC1.4 Human” value came out at 8.05 µM and the pEC50 was 4.50.

On to `O=C(Nc1ccc(CNC(=O)c2ccnn2C2CCC2)cc1)OCc1ccc(Cl)cc1` [Compound 327, (4-chlorophenyl)methyl N-(4-{[(2-cyclobutylpyrazol-3-yl)formamido]methyl}phenyl)carbamate], for which the “AC1.4 Human” value stood at 8.21 µM and the pEC50 is 4.68.

In the case of `Cc1ccc(Cc2ccc(NC(=O)OCc3ccc(C(F)F)cc3)cc2)cn1` [Compound 328, (4-(difluoro-13-methyl)phenyl)methyl (4-((6-methylpyridin-3-yl)methyl)phenyl)carbamate], the “AC1.4 Human” value came out at 8.56 µM and the pEC50 was 4.44.

As to `CC(O)(c1ccncc1)c1ccc(NC(=O)OCc2cncs2)cc1` (centres unmarked) [Compound 329, thiazol-5-ylmethyl (4-(1-hydroxy-1-(pyridin-4-yl)ethyl)phenyl)carbamate], the “AC1.4 Human” value was 8.65 µM and the pEC50 is 4.47.

On to `O=C(Cc1cnoc1)NCc1ccc(NC(=O)OCc2ccc(Cl)cc2)cc1` [Compound 330, (4-chlorophenyl)methyl N-(4-{[2-(1,2-oxazol-4-yl)acetamido]methyl}phenyl)carbamate], for which the “AC1.4 Human” value was found to be 8.66 µM and the negative-log EC50 (pEC50) is 4.33.

Consider `Cc1ccc(Cc2ccc(NC(=O)OCc3ccc(F)cc3)cc2)cn1` [Compound 331, 4-fluorobenzyl (4-((6-methylpyridin-3-yl)methyl)phenyl)carbamate], for which the “AC1.4 Human” value was found to be 8.67 µM and the pEC50 is 4.93.

For `CN1CCN(C(=O)Cc2ccc(NC(=O)OCc3ccc(Cl)cc3)cc2)CC1=O` [Compound 332, (4-chlorophenyl)methyl N-{4-[2-(4-methyl-3-oxopiperazin-1-yl)-2-oxoethyl]phenyl}carbamate], the “AC1.4 Human” value was 8.89 µM and the negative logarithm of the EC50 (pEC50) is 4.30.

As for `O=C(Nc1ccc(Cc2ccncc2)cc1)OCc1cnoc1` [Compound 333, isoxazol-4-ylmethyl (4-(pyridin-4-ylmethyl)phenyl)carbamate], the “AC1.4 Human” value came to 9.58 µM and the pEC50 is 4.41.

Consider `O=C(Cn1cccn1)NCc1ccc(NC(=O)OCc2ccc(Cl)cc2)cc1` [Compound 334, (4-chlorophenyl)methyl N-(4-{[2-(pyrazol-1-yl)acetamido]methyl}phenyl)carbamate], for which the “AC1.4 Human” value stood at 9.87 µM and the pEC50 was 5.03.

For `O=C(Nc1ccc(Cc2nccs2)cc1)OCc1ccc(Cl)cc1` [Compound 336, 4-chlorobenzyl (4-(thiazol-2-ylmethyl)phenyl)carbamate], the “AC1.4 Human” value is 10.07 µM and the pEC50 was 4.61.

For the compound `CN([C@@H]1CCOC1)S(=O)(=O)c1ccc(NC(=O)OCc2ccc(Cl)cc2)cc1` [Compound 337, 4-chlorobenzyl (R)-(4-(N-methyl-N-(tetrahydrofuran-3-yl)sulfamoyl)phenyl)carbamate], the “AC1.4 Human” value came to 10.15 µM and the pEC50 is 4.58.

On to `O=C(Cc1ccc(NC(=O)OCc2ccc(Cl)cc2)cc1)N[C@H]1CC[C@H](OC(F)(F)F)CC1` [Compound 338, (4-chlorophenyl)methyl N-[4-({[(1r,4r)-4-(trifluoromethoxy)cyclohexyl]carbamoyl}methyl)phenyl]carbamate], for which the “AC1.4 Human” value was found to be 10.44 µM and the pEC50 was 4.74.

For the compound `O=C(Cc1ccc(NC(=O)OCc2ccc(Cl)cc2)cc1)NC1COC1` [Compound 339, 4-chlorobenzyl (4-(2-(oxetan-3-ylamino)-2-oxoethyl)phenyl)carbamate], the “AC1.4 Human” value turned out to be 10.65 µM and the negative-log EC50 (pEC50) is 4.34.

For the compound `Cc1ocnc1C(=O)N(C)Cc1ccc(NC(=O)OCc2ccc(Cl)cc2)cc1` [Compound 340, (4-chlorophenyl)methyl N-(4-{[N-methyl-1-(5-methyl-1,3-oxazol-4-yl)formamido]methyl}phenyl)carbamate], the “AC1.4 Human” value was 10.65 µM and the pEC50 is 4.34.

`COc1ccc(COC(=O)Nc2ccc([C@H](C)C(=O)N3CCC[C@H]3CO)cc2)cc1` [Compound 341]: the “AC1.4 Human” value came to 11.08 µM and the negative-log EC50 (pEC50) is 4.26.

As to `O=C(Nc1ccc(CNC(=O)c2ocnc2C2CC2)cc1)OCc1ccc(Cl)cc1` [Compound 343, (4-chlorophenyl)methyl N-(4-{[(4-cyclopropyl-1,3-oxazol-5-yl)formamido]methyl}phenyl)carbamate], the “AC1.4 Human” value was 11.85 µM and the negative logarithm of the EC50 (pEC50) was 4.66.

For the compound `Cc1noc(Cc2ccc(NC(=O)OCc3ccc(Cl)cc3)cc2)n1` [Compound 344, (4-chlorophenyl)methyl N-{4-[(3-methyl-1,2,4-oxadiazol-5-yl)methyl]phenyl}carbamate], the “AC1.4 Human” value stood at 13.04 µM and the pEC50 is 4.47.

On to `Cn1nc(C(F)F)cc1C(=O)NCc1ccc(NC(=O)OCc2ccc(Cl)cc2)cc1` [Compound 345, (4-chlorophenyl)methyl N-[4-({[5-(difluoromethyl)-2-methylpyrazol-3-yl]formamido}methyl)phenyl]carbamate], for which the “AC1.4 Human” value came to 13.49 µM and the negative logarithm of the EC50 (pEC50) was 4.69.

In the case of `O=C1CN(C2COC2)[C@@H](c2ccc(NC(=O)OCc3ccc(Cl)cc3)cc2)CN1` [Compound 346, 4-chlorobenzyl (S)-(4-(1-(oxetan-3-yl)-5-oxopiperazin-2-yl)phenyl)carbamate], the “AC1.4 Human” value worked out at 13.52 µM and the negative-log EC50 (pEC50) is 4.34.
